Results taken from PMC12016938, “A small molecule PKCε inhibitor reduces hyperalgesia induced by paclitaxel or opioid withdrawal” (JCI Insight, 2025).
Values after ≈ are worked out from the molar mass of the structure shown. Values joined by “and” are separate entries in the source; they are usually repeats but may differ in a detail not shown here. Identical values can stand only once. Like-named read-outs stand apart in the source and are kept apart here.

Assays:
[1] = molecular target: T1, CLK4 (Homo sapiens, UniProt Q9HAZ1); experiment: scanMax kinome panel, CLK4; format: binding; conditions: 200 nM CP612; read-out: scanMax % of control, CLK4
T1 construct: purchased Eurofins-DiscoverX
T1 sequence (Q9HAZ1 whole entry): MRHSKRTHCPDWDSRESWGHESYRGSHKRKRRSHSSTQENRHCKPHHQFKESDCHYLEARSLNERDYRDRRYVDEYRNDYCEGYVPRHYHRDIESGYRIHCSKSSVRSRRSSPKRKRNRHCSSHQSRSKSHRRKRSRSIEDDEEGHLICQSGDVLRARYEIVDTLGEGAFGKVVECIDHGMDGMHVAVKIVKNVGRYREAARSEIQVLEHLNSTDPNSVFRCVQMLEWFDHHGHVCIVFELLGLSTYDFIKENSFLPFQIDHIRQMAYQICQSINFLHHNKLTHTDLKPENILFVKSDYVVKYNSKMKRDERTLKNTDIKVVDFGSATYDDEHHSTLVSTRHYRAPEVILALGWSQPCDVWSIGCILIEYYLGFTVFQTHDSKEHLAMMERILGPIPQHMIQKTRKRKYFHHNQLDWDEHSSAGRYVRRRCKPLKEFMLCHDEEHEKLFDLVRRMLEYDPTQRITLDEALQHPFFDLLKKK
Experimental: (§1) CP612 was screened for kinome specificity at 200 nM against 468 kinases using the scanMax assay panel from Eurofins-DiscoverX. CP612 inhibited 10 other WT kinases besides PKCε, all to < 10% of control: CLK1 (CDC Like Kinase 1), CLK4, PKN1 (Protein kinase N1), PKN2, PKCδ, PKCη, PKCθ, PRKG2 (Protein Kinase CGMP-Dependent 2), ROCK1, and ROCK2.

[2] = Kinetic aqueous solubility; format: physicochemical
Experimental: Kinetic aqueous solubility. Test compounds were diluted 100-fold from 1 mM DMSO stocks into 0.1M phosphate-buffered saline (PBS) in triplicate. Diluted samples were shaken at room temperature at 600 rpm for 3 hours and then filtered by centrifugation (0.2 μm, PVDF) at 1,000g for 1 minute. Aliquots of 100 μL were diluted into 3 volumes of acetonitrile for extraction, vortexed for 15 seconds, centrifuged at 16,000g for 10 minutes at 4°C, and then analyzed by liquid chromatography–mass spectrometry (LC-MS).

[3] = molecular target: T2, CLK1 (CDC Like Kinase 1) (Homo sapiens, UniProt P49759); experiment: scanMax kinome panel, CLK1; format: binding; conditions: 200 nM CP612; read-out: scanMax % of control, CLK1
T2 construct: purchased Eurofins-DiscoverX
T2 sequence (P49759 whole entry): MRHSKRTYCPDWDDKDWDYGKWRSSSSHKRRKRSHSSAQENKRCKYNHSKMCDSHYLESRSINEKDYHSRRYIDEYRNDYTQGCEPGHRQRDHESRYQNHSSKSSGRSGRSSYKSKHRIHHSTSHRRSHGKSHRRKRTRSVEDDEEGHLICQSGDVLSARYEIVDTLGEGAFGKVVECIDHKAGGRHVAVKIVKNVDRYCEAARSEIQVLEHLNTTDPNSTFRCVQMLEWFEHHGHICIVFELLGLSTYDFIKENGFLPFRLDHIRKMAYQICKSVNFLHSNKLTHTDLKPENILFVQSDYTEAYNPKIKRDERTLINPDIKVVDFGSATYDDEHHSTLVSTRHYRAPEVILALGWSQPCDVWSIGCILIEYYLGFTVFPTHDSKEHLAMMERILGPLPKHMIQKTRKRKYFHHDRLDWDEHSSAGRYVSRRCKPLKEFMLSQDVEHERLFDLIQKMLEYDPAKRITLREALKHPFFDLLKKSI
Experimental: as §1

[4] = molecular target: T3, PKCε (Homo sapiens, UniProt Q02156); experiment: PKCε activity with increasing ATP and CP612 (ATP competition); format: biochemical; design: His; AVI; made in house; host or cells: Sf9 cells; conditions: for Kinase activity (% control): PKCε, log [CP612]
T3 sequence (Q02156 1-737): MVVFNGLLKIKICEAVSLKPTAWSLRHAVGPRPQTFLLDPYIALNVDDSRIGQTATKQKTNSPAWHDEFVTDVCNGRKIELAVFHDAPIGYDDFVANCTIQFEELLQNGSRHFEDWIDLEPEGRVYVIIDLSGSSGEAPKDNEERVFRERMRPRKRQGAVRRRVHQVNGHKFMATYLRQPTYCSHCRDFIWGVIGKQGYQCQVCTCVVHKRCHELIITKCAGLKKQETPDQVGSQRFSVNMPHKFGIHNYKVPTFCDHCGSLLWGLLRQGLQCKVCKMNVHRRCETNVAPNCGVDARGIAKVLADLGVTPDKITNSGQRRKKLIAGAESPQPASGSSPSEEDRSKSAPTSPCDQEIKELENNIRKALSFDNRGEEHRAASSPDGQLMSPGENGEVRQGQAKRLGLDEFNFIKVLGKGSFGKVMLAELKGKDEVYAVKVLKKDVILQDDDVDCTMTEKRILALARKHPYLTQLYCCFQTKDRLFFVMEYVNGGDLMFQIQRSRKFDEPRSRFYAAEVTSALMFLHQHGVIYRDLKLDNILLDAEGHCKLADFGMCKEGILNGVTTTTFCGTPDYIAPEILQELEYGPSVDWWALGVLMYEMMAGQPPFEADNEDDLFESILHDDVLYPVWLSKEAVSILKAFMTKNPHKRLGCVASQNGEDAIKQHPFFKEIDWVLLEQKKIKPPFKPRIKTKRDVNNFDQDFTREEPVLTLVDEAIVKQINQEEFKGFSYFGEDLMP
Experimental: Therefore, we assayed PKCε activity with increasing concentrations of ATP and in the presence of increasing concentrations of CP612.
Kinase assays. CP612 was assayed against His-AVI–tagged human PKCε (1 nM) produced in Sf9 cells, and ROCK1 (Carna Biosciences; 5 nM) using the Lance-FRET kinase assay system (PerkinElmer Revvity). Other human recombinant PKCs (SignalChem Biotech) were assayed in triplicate at the following concentrations: PKCβII 1.6 nM, PKCγ 500 pM, PKCδ 5 nM, PKCθ 500 pM, and PKCζ 500 pM. PKCs were incubated in a 15 μL reaction volume with kinase buffer (20 mM Tris-HCL [pH 7.4], 10 mM MgCl2, 0.25 mM EGTA, 0.1 mg/mL BSA, and 0.15% Triton X-100), 50 nM ULight-labeled CREBtide […] (PerkinElmer, TRF0107, Revvity), and test compound. […] after 60 minutes with 10 μL of 2.5× Stop Solution/Detection Mix containing 20 mM EDTA and 4 nM LANCE Ultra Europium anti–phospho-[…] peptide antibody (PerkinElmer, TRF0200, Revvity). After incubation at 27°C for another 60 minutes, phosphorylation was detected using a FlexStation 3 Microplate Reader (Molecular Devices) in LANCE TR-FRET mode (excitation = 340 nm, emission = 665 nm) and expressed as relative fluorescence units (RFU). The percentage of inhibition was calculated as: (signal without test compound − signal with test compound)/(signal without test compound − signal without ATP) × 100. The Z’ factor for this assay ranged between 0.72 and 0.86.

[5] = molecular target: PKCθ (Homo sapiens, UniProt Q04759); experiment: scanMax kinome panel, PKCθ; format: binding; design: purchased Eurofins-DiscoverX; conditions: 200 nM CP612; read-out: scanMax % of control, PKCθ
PKCθ, sequence (Q04759 whole entry): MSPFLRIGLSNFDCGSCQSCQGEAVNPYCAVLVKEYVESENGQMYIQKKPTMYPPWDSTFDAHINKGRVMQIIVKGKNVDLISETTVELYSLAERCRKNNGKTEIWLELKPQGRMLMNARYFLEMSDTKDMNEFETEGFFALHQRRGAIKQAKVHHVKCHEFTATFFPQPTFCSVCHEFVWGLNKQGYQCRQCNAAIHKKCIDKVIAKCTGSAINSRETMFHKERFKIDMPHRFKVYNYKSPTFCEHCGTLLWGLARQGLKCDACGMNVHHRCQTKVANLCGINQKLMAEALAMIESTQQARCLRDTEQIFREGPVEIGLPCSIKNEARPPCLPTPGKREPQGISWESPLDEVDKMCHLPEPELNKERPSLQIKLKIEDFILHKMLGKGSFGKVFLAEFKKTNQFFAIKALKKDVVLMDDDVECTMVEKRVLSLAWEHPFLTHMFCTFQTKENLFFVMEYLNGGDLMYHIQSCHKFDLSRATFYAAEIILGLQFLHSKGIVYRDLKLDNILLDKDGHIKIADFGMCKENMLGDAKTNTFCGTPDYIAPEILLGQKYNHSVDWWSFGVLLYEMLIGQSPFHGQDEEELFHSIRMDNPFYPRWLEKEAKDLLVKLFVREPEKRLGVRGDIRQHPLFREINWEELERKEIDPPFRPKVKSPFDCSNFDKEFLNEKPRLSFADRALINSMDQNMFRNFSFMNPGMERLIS
Experimental: as §1

SMILES: N[C@H](CNC(=O)C1(c2ccc(Cl)cc2)CCCC1)c1ccc(C(=O)Nc2ccncc2)cc1 [CP612]
- remaining binding at 0.2 µM [1]: < 10%
- solubility kinetic at 3 h ([2]; 0.1M phosphate-buffered saline (PBS), aqueous buffer, kinetic from dmso stock, 0.1M PBS, room temperature, 3 hours, read-out: Kinetic aqueous solubility): 7410 ± 120 nM (≈ 3.43 µg/mL)
- solubility kinetic at 3 h ([2]; 0.1M phosphate-buffered saline (PBS), aqueous buffer, kinetic from dmso stock, mean of 3 samples, read-out: Kinetic aqueous solubility, Corrected (nM), Mean): 7410 nM (≈ 3.43 µg/mL)
- solubility kinetic at 3 h ([2]; 0.1M phosphate-buffered saline (PBS), aqueous buffer, kinetic from dmso stock, single sample, read-out: Kinetic aqueous solubility, Corrected): 7540 nM (≈ 3.49 µg/mL)
- solubility kinetic at 3 h ([2]; single sample, read-out: Kinetic aqueous solubility, Corrected): 7309.08 nM and 7388.24 nM
- remaining binding at 0.2 µM [3]: < 10%
- Increase of EC50 for ATP ([4]; 300 nM CP612): 40 fold
- Kinase activity (% control) ([4]; [ATP] 0.183 µM, M -8.523, 0.183 µM): 47.534 % control and 24.462 % control and 35.552 % control
- Kinase activity (% control) ([4]; [ATP] 0.73 µM, M -6, 0.73 µM): 0.864 % control and 1.238 % control
- Kinase activity (% control) ([4]; [ATP] 2.93 µM, M -5.523, 2.93 µM): 0.280 % control and 0.321 % control
- Kinase activity (% control) ([4]; [ATP] 2.93 µM, M -6, 2.93 µM): 1.498 % control and 2.443 % control
- Kinase activity (% control) ([4]; [ATP] 2.93 µM, M -6.523, 2.93 µM): 4.077 % control and 4.559 % control
- Kinase activity (% control) ([4]; [ATP] 2.93 µM, M -7, 2.93 µM): 8.910 % control and 10.659 % control
- Kinase activity (% control) ([4]; [ATP] 2.93 µM, M -7.523, 2.93 µM): 20.262 % control and 21.135 % control
- Kinase activity (% control) ([4]; [ATP] 2.93 µM, M -8, 2.93 µM): 38.517 % control and 38.535 % control
- Kinase activity (% control) ([4]; [ATP] 2.93 µM, M -8.523, 2.93 µM): 63.294 % control and 62.615 % control
- Kinase activity (% control) ([4]; [ATP] 11.67 µM, M -6, 11.67 µM): 4.132 % control and 3.783 % control
- Kinase activity (% control) ([4]; [ATP] 11.67 µM, M -6.523, 11.67 µM): 10.586 % control and 9.278 % control
- Kinase activity (% control) ([4]; [ATP] 11.67 µM, M -7, 11.67 µM): 20.490 % control and 19.346 % control
- Kinase activity (% control) ([4]; [ATP] 11.67 µM, M -7.523, 11.67 µM): 38.625 % control and 36.759 % control
- Kinase activity (% control) ([4]; [ATP] 11.67 µM, M -8, 11.67 µM): 63.930 % control and 57.174 % control
- Kinase activity (% control) ([4]; [ATP] 11.67 µM, M -8.523, 11.67 µM): 75.246 % control and 100.913 % control and 75.385 % control
- Kinase activity (% control) ([4]; [ATP] 49 µM, M -6, 49 µM): 10.798 % control and 9.001 % control
- Kinase activity (% control) ([4]; [ATP] 49 µM, M -6.523, 49 µM): 25.250 % control and 20.067 % control
- Kinase activity (% control) ([4]; [ATP] 49 µM, M -7, 49 µM): 46.048 % control and 35.068 % control
- Kinase activity (% control) ([4]; [ATP] 49 µM, M -7.523, 49 µM): 52.594 % control and 73.832 % control and 56.661 % control
- Kinase activity (% control) ([4]; [ATP] 49 µM, M -8, 49 µM): 73.818 % control and 104.476 % control and 73.273 % control
- Kinase activity (% control) ([4]; [ATP] 49 µM, M -8.523, 49 µM): 102.193 % control and 87.045 % control
- Kinase activity (% control) ([4]; [ATP] 187 µM, M -6, 187 µM): 22.653 % control and 20.507 % control
- Kinase activity (% control) ([4]; [ATP] 187 µM, M -6.523, 187 µM): 46.882 % control and 37.693 % control
- Kinase activity (% control) ([4]; [ATP] 187 µM, M -7, 187 µM): 75.602 % control and 55.920 % control
- Kinase activity (% control) ([4]; [ATP] 187 µM, M -7.523, 187 µM): 95.087 % control and 100.001 % control and 71.937 % control
- Kinase activity (% control) ([4]; [ATP] 187 µM, M -8, 187 µM): 104.191 % control and 87.275 % control
- Kinase activity (% control) ([4]; [ATP] 187 µM, M -8.523, 187 µM): 106.161 % control and 97.914 % control
- Kinase activity (% control) ([4]; [ATP] 750 µM, M -5.523, 750 µM): 21.316 % control and 15.871 % control
- Kinase activity (% control) ([4]; [ATP] 750 µM, M -6, 750 µM): 49.150 % control and 51.871 % control
- Kinase activity (% control) ([4]; [ATP] 750 µM, M -6.523, 750 µM): 85.111 % control and 100.290 % control and 67.168 % control
- Kinase activity (% control) ([4]; [ATP] 750 µM, M -7, 750 µM): 106.868 % control and 86.984 % control
- Kinase activity (% control) ([4]; [ATP] 750 µM, M -7.523, 750 µM): 104.196 % control and 100.982 % control
- Kinase activity (% control) ([4]; [ATP] 750 µM, M -8, 750 µM): 105.985 % control and 104.633 % control
- Kinase activity (% control) ([4]; [ATP] 750 µM, M -8.523, 750 µM): 106.157 % control and 106.288 % control
- Mode of inhibition of PKCε ([4]; rightward shift at higher [ATP]): competing with ATP
- remaining binding at 0.2 µM [5]: < 10%
